Reference: patent US10689383B2, “Optionally fused heterocyclyl-substituted derivatives of pyrimidine useful for the treatment of inflammatory, metabolic, oncologic and autoimmune diseases” (NUEVOLUTION A/S, priority 2014, dated 2020)
pIC50: −log10 of the molar value.

What was measured:
Th17 cells = assay: Th17 Assay (IL-17 levels in supernatants by ELISA); format: cell-based; settings: Homo sapiens; read-out: Th17 activity range @ 1 μM (% inhibition)
Method: The activity of the compounds was evaluated using a Fluorescence Polarization (FP) Assay and, in most cases, a Th17 Assay and/or RORγ Reporter assay (also referred to as Gal4 assay). The FP assay is an in vitro assay monitoring binding within the ligand binding pocket. The RORγ and the Th17 assays are both cell-based assays monitoring functional activity of the compound assayed.
Human peripheral blood mononuclear cells (PBMCs) were isolated from buffy coats of healthy human volunteers using the Ficoll paque PLUS kit (GE Healthcare, cat no 17-1440-02), as instructed by the manufacturer. Naive CD4+ T cells were isolated with Naive CD4+ T cell kit, human (Milteny Biotec, cat no 130-094-131). The following modifications were made to the manufacturer's protocol: 1) Incubation with Biotin-Antibody Cocktail and Anti-Biotin MicroBeads was prolonged to 30 minutes, and 2) Cells were washed with 40 mL of Miltenyi buffer. Differentiation of Th17 cells in anti-CD3 (BD Pharmingen, 5 μg/ml) coated 96-well plates (400,000 cells/well, 160 μl RPMI 1640+10% Fetal Bovine Serum) containing 5 μg/ml anti-CD28 (BD Pharmingen), 10 ng/ml IL-2 (R&D Systems), 2.5 ng/ml TGFβ-1 (R&D Systems), 20 ng/ml IL-1β (R&D Systems), 20 ng/ml IL-6 (R&D Systems), 30 ng/ml IL-23 (R&D Systems), 2.5 μg/ml anti-IL-4 (R&D Systems) and 1 μg/ml anti-IFNγ (R&D Systems) and with test compound during the entire differentiation (or vehicle, 0.1% DMSO for control). Test compounds were tested in triplicates, diluted 1000-fold in medium (final DMSO concentration is 0.1%). Incubated for seven days at 37° C., 5% CO2, 95% humidity, and 2-fluoro-4′-[[4-(4-pyridinylmethyl)-1-piperazinyl]methyl]-α,α-bis(trifluoromethyl)-[1,1′-biphenyl]-4-methanol (SR2211 Calbiochem, Cat. No. 557353) was used as positive control. As negative control, cells were differentiated into Th0 using 5 μg/ml anti-CD28 (BD Pharmingen), 10 ng/ml IL-2 (R&D Systems), 2 μg/ml anti-IL4 (R&D Systems) and 2 μg/ml anti-IFNγ (R&D Systems) are negative control. IL-17 levels in supernatants were measured with ELISA (R&D Systems).

[1] = biological target: T1, human RORγt (Ligand Binding Domain) (Homo sapiens, UniProt P51449); assay: Fluorescence Polarization (FP) Assay; settings: Fluorescence Polarization (FP) Assay; values given as upper bounds of activity ranges; read-out: FP activity range
T1 construct: purchased Crelux (Planegg, Germany) batch no PC5032-1
T1 sequence (P51449 269-508 limits assumed): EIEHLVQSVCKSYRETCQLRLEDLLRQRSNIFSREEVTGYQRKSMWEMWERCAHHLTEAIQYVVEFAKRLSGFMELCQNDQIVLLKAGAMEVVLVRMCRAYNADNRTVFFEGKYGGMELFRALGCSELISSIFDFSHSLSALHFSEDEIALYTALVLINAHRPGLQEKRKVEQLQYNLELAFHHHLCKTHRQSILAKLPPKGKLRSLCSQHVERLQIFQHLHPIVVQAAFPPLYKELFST
Summary of the method: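 In vitro FP binding assay monitoring ligand binding within the ligand binding pocket. Probe is a TAMRA-labelled RORγt ligand (MW 910 g/mole); DMSO served as negative control.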

[2] = biological target: T2, yeast Gal4-DNA binding domain fused to the ligand binding domain of human RORγ (Homo sapiens, UniProt P51449); assay: RORγ Reporter Assay (Gal4); format: cell-based; settings: values given as lower bounds of ranges; for Gal4 activity range @ 0.1 μM (% inhibition): RORγ Reporter Assay (Gal4) at 0.1 μM; for Gal4 activity range @ 1 μM (% inhibition): RORγ Reporter Assay (Gal4) at 1 μM
T2 construct: host or cells: HEK293t
T2 sequence (P51449 269-508 limits assumed): T1 sequence (P51449 269-508 limits assumed)
Summary of the method: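 HEK293t reporter cells expressing the hybrid, with Gal4-UAS-driven firefly luciferase, treated in triplicate with compound at 1,000 nM and 100 nM (0.1% DMSO) in medium with 10% charcoal-stripped FBS for 24 h at 37 °C. Luminescence read; percent reduction of RLU calculated relative to vehicle.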

SMILES	inhibition at 1 µM (Th17 cells) [%]	pIC50 [1]	Gal4 activity range @ 0.1 μM (% inhibition) [2] [% inhibition]	Gal4 activity range @ 1 μM (% inhibition) [2] [% inhibition]
CC(C)C[C@@H](Oc1ncnc(N2CCC[C@@H]2c2ccc(C(F)(F)F)cc2)c1F)C(N)=O (single isomer, unassigned) [Example 77, (2R)-2-[5-fluoro-6-[(2R)-2-[4-(trifluoromethyl)phenyl]pyrrolidin-1-yl]pyrimidin-4-yl]oxy-4-methyl-pentanamide or (2R)-2-[5-fluoro-6-[(2S)-2-[4-(trifluoromethyl)phenyl]pyrrolidin-1-yl]pyrimidin-4-yl]oxy-4-methyl-pentanamide]	> 50	–	–	–
COC(C)(C)CC(C)Nc1ncnc(N2CCCC2c2ccc(C(F)(F)F)cc2)c1F (stereo not shown) [Example 16, 5-fluoro-N-(3-methoxy-1,3-dimethyl-butyl)-6-[2-[4-(trifluoromethyl)phenyl]pyrrolidin-1-yl]pyrimidin-4-amine]	> 0	–	–	–
CC(C)c1ccc(C2CCCN2c2ncnc(NCc3ccc(CC(N)=O)cc3)c2F)cc1 (stereo not shown) [Example 303, 2-[4-[[[5-fluoro-6-[2-(4-isopropylphenyl)pyrrolidin-1-yl]pyrimidin-4-yl]amino]methyl]phenyl]acetamide]	–	> 6.30	>80	>80
COc1cccc(C2CCCN2c2ncnc(NCc3ccc(CC(N)=O)cc3)c2F)c1 (stereo not shown) [Example 304, 2-[4-[[[5-fluoro-6-[2-(3-methoxyphenyl)pyrrolidin-1-yl]pyrimidin-4-yl]amino]methyl]phenyl]acetamide]	–	> 6.30	>20	>80
NC(=O)Cc1ccc(CNc2ncnc(N3CCCC3c3cccc(Br)c3)c2F)cc1 (stereo not shown) [Example 305, 2-[4-[[[6-[2-(3-bromophenyl)pyrrolidin-1-yl]-5-fluoro-pyrimidin-4-yl]amino]methyl]phenyl]acetamide]	–	> 6.30	>50	>80
NC(=O)Cc1ccc(CNc2ncnc(N3CCCC3c3cccc(Cl)c3)c2F)cc1 (stereo not shown) [Example 306, 2-[4-[[[6-[2-(3-chlorophenyl)pyrrolidin-1-yl]-5-fluoro-pyrimidin-4-yl]amino]methyl]phenyl]acetamide]	–	> 6.30	>50	>80
NC(=O)Cc1ccc(CNc2ncnc(N3CCC3c3ccc(C(F)(F)F)cc3)c2F)cc1 (stereo not shown) [Example 307, 2-[4-[[[5-fluoro-6-[2-[4-(trifluoromethyl)phenyl]azetidin-1-yl]pyrimidin-4-yl]amino]methyl]phenyl]acetamide]	–	> 5.70	>20	>50
NC(=O)Cc1ccc(CNc2ncnc(N3CCCCC3c3ccc(C(F)(F)F)cc3)c2F)cc1 (stereo not shown) [Example 308, 2-[4-[[[5-fluoro-6-[2-[4-(trifluoromethyl)phenyl]-1-piperidyl]pyrimidin-4-yl]amino]methyl]phenyl]acetamide]	–	> 5.00	>20	>50
Cc1ccc(C2CCCN2c2ncnc(NCc3ccc(CC(N)=O)cc3)c2F)o1 (stereo not shown) [Example 313, 2-[4-[[[5-fluoro-6-[2-(5-methyl-2-furyl)pyrrolidin-1-yl]pyrimidin-4-yl]amino]methyl]phenyl]acetamide]	–	> 6.30	>20	>80
CCc1ccc(C2CCCN2c2ncnc(NCc3ccc(CC(N)=O)cc3)c2F)o1 (stereo not shown) [Example 316, 2-[4-[[[6-[2-(5-ethyl-2-furyl)pyrrolidin-1-yl]-5-fluoro-pyrimidin-4-yl]amino]methyl]phenyl]acetamide]	–	> 6.30	>20	>80
COc1ccc(C2CCCN2c2ncnc(NCc3ccc(CC(N)=O)cc3)c2F)c(OC)c1 (stereo not shown) [Example 318, 2-[4-[[[6-[2-(2,4-dimethoxyphenyl)pyrrolidin-1-yl]-5-fluoro-pyrimidin-4-yl]amino]methyl]phenyl]acetamide]	–	> 6.30	>20	>20
O=S(=O)(O)c1ccc(CNc2ncnc(N3CCC[C@@H]3c3ccc(C(F)(F)F)cc3)c2F)cc1 [Example 319, 4-[[[5-fluoro-6-[(2R)-2-[4-(trifluoromethyl)phenyl]pyrrolidin-1-yl]pyrimidin-4-yl]amino]methyl]benzenesulfonic acid]	–	> 6.30	–	>0
COCCNS(=O)(=O)c1ccc(CNc2ncnc(N3CCC[C@@H]3c3ccc(C(F)(F)F)cc3)c2F)cc1 [Example 320, 4-[[[5-fluoro-6-[(2R)-2-[4-(trifluoromethyl)phenyl]pyrrolidin-1-yl]pyrimidin-4-yl]amino]methyl]-N-(2-methoxyethyl)benzenesulfonamide]	–	> 6.30	>80	>80
NC(=O)Cc1ccc(CNc2ncnc(N3CCCC3c3ccc(C(F)(F)F)cc3O)c2F)cc1 (stereo not shown) [Example 323, 2-[4-[[[5-fluoro-6-[2-[2-hydroxy-4-(trifluoromethyl)phenyl]pyrrolidin-1-yl]pyrimidin-4-yl]amino]methyl]phenyl]acetamide]	–	> 6.30	>80	>80
CS(=O)(=O)N1CCC(CNc2ncnc(N3CCCC3c3ccc(C(F)(F)F)cc3O)c2F)CC1 (stereo not shown) [Example 324, 2-[1-[5-fluoro-6-[(1-methylsulfonyl-4-piperidyl)methylamino]pyrimidin-4-yl]pyrrolidin-2-yl]-5-(trifluoromethyl)phenol]	–	> 6.30	>50	>80
NC(=O)Cc1ccc(Cn2ccc3c(N4CCOC[C@@H]4c4ccc(C(F)(F)F)nc4)ncnc32)cc1 [Example 326, 2-[4-[[4-[(3S)-3-[6-(trifluoromethyl)-3-pyridyl]morpholin-4-yl]pyrrolo[2,3-d]pyrimidin-7-yl]methyl]phenyl]acetamide]	–	> 6.30	>50	>80
CS(=O)(=O)N1CCC(CNc2ncnc(N3CCOC[C@@H]3c3ccc(C(F)(F)F)cc3)c2F)C1 (stereo partly drawn) [Example 327, 5-fluoro-N-[(1-methylsulfonylpyrrolidin-3-yl)methyl]-6-[(3S)-3-[4-(trifluoromethyl)phenyl]morpholin-4-yl]pyrimidin-4-amine]	–	> 6.00	>20	>80
NC(=O)Cc1ccc(Cn2ccc3c(N4CCOC[C@@H]4c4ccc(C(F)(F)F)cn4)ncnc32)cc1 [Example 328, 2-[4-[[4-[(3S)-3-[5-(trifluoromethyl)-2-pyridyl]morpholin-4-yl]pyrrolo[2,3-d]pyrimidin-7-yl]methyl]phenyl]acetamide]	–	> 6.30	>80	>80
